According to patent US9084792B2 (Zhejiang Charioteer Pharmaceutical Co., Ltd., priority 2009, dated 2015):

Key:
[1] = stability test of crystalline form on storage; format: physicochemical; settings: room temperature, relative humidity of less than 50%
From the text: (2) It has good stability of crystalline form. […] It can be stored in the dark, cool and dry place for a long time.

[2] = thermal decomposition point; format: physicochemical
Procedure: (1) It has the property required for large-scale preparation of drugs: for example, it has thermal decomposition point of over 250° C., and good fluidity and bulk density, which are in favor of drug preparation and industrial production on a large scale.

With `Nc1nc2c(ncn2COCCO)c(=O)[nH]1.Nc1nc2c(ncn2COCCO)c(=O)[nH]1.Nc1nc2c(ncn2COCCO)c(=O)[nH]1.O.O` [acyclovir 2/3 hydrate] the storage time [1] was “more than one year”, the “content during the storage time” value ([1]; more than one year) was “the content does not reduce” and the “crystalline form during the storage time” value ([1]; more than one year) was “the crystalline form remains the same”. For the same compound, the thermal decomposition point [2] was “over 250 °C”.
